Read-outs that look alike come from different tables or passages of the source.
How the values were obtained:
[1] = Toxicokinetics of abiraterone decanoate and abiraterone in 13-week study; format: in vivo, cynomolgus monkeys; details: for AUC(0-t) / Cmax: male, cynomolgus monkey, in vivo, im; for AUC(0-t): Abiraterone Decanoate plasma AUC0-[…] (mean); for Cmax: Abiraterone Decanoate plasma Cmax (mean)
Protocol: Toxicokinetic parameters were obtained for each animal on Days 1, 29, and 71. […] A single 144-hour sample was collected outside of the allowable window for timed collections from one Animal on Day 29 and the actual time for this time point was used in the toxicokinetic data analysis. Nominal time was used for graphic representation and concentration table generation. For each animal, the following toxicokinetic parameters were determined: maximum observed plasma concentration (Cmax), time of maximum observed plasma concentration (Tmax), and area under the plasma concentration-time curve (AUC).

[2] = target: T1, CYP17 (Rattus norvegicus, UniProt P11715); test: Serum steroid levels after single IV or IM injection in tissue uptake study; format: in vivo, strain CD [Crl:CD(SD)]; details: rats
T1 construct: endogenous in cells; host or cells: live CD [Crl:CD(SD)] rats (in vivo)
T1 sequence (P11715 1-507): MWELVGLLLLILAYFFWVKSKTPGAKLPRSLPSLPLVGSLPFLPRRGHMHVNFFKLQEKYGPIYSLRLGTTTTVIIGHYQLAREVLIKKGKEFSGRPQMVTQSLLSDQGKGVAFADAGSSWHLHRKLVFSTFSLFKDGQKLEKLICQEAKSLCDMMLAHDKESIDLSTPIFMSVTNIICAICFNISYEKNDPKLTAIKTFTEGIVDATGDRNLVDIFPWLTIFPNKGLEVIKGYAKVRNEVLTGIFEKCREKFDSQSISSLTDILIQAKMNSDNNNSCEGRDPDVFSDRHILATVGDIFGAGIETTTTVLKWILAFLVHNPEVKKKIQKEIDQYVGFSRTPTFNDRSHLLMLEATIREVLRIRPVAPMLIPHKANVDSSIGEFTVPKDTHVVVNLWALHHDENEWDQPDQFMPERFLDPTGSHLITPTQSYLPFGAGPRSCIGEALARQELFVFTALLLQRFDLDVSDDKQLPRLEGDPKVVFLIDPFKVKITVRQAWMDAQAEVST
Description: (§1) Vehicle for IM injection: Corn oil with 10% benzyl alcohol (w/v) and 20% benzyl benzoate (w/v). The study followed the protocols described below.
(§2) For serum steroid analysis, blood samples were collected from animals in each study group at predose and at terminal necropsy according to the following protocol. Animals were designated for 72 hr and 168 hr necropsy, the animals will be fasted overnight before scheduled blood collections. Plasma samples will be used for ACTH level analysis. Serum samples will be used for LH level analysis and steroid level analysis. Plasma samples will also be collected at various time points and be analyzed for abiraterone decanoate and abiraterone. Representative samples of tissues will be collected and snap frozen and analyzed. Lung, Liver, Adrenal glands, Prostate, Testes (Sample 1 and 2) and lymph nodes tissues will be collected. Lymph node(s) draining administration site(s): Inguinal (Groups 1-4) and Iliac (Groups 1 and 3 only). Lymph node, mandibular and Lymph node mesenteric tissues will also be collected.

[3] = Tissue uptake study: plasma and tissue concentrations of abiraterone and abiraterone decanoate after single IV or IM injection; format: in vivo, rats, strain CD [Crl:CD(SD)]; details: CD [Crl:CD(SD)], rat, intramuscular, 90 mg/kg
Protocol: The objective of this study is to collect tissue samples for the determination of the uptake of abiraterone decanoate and abiraterone following intravenous (IV) and intramuscular (IM; abiraterone decanoate only) injection. Additionally, blood steroid levels also were evaluated.
as §1
For intramuscular injections, the test article and vehicle will be administered once as a single intramuscular dose on Day 1 to animals in Groups 1 and 3. Doses will be administered via bolus intramuscular injection into the biceps femoris on the hind legs. The Test article will be warmed at 35° C. (±5°) for at least 1 hour prior to dosing. Individual doses will be based on the most recent body weights.
For IV injections, the test article will be administered once on Day 1 as a single intravenous bolus injection to animals in Groups 2 and 4. The test article will be administered via the tail vein as a bolus intravenous injection (less than 2 minutes). Individual doses will be based on the most recent body weights.
as §2

[4] = single intramuscular dose (90 mg/kg)

**Q.** What does the source list for `CCCCCCCCCC(=O)O[C@H]1CC[C@@]2(C)C(=CC[C@@H]3[C@@H]2CC[C@]2(C)C(c4cccnc4)=CC[C@@H]32)C1` [Abiraterone Decanoate, abiraterone decanoate]?
**A.** plasma exposures to abiraterone (Cmax and AUC) compared with oral abiraterone acetate toxicology studies ([1]; IM administration, cynomolgus monkeys): lower than levels achieved in toxicology studies with abiraterone acetate; AUC(0-t) ([1]; 20 mg/kg): 888 ng·h/mL; AUC(0-t) ([1]; 60 mg/kg): 2040 ng·h/mL; AUC(0-t) ([1]; 200 mg/kg): 13100 ng·h/mL; Cmax ([1]; 200 mg/kg): 66.6 ng/mL; Cmax ([1]; cynomolgus, 20 mg/kg): 6.27 ng/mL; AUC(0-t) ([1]; cynomolgus, 60 mg/kg): 2190 ng·h/mL; Cmax ([1]; cynomolgus, 60 mg/kg): 15.8 ng/mL; AUC(0-t) ([1]; cynomolgus, 200 mg/kg): 12400 ng·h/mL; Cmax ([1]; cynomolgus, 200 mg/kg): 71.3 ng/mL; circulating androgen levels (androstenedione and testosterone) [2, 4]: potent reductions; levels of progesterone and corticosterone [2, 4]: increased; sustained reduction of testosterone ([2]; single intramuscular dose, last time point tested): ≥ 168 h; concentration at 7 days ([3]; iliac lymph node, read-out: Decanoate concentration, iliac lymph): 91000 ng/g; concentration at 7 days ([3]; inguinal lymph node, read-out: Decanoate concentration, Inguinal Lymph): 254 ng/g; concentration at 7 days ([3]; liver, read-out: Decanoate concentration, Liver): 10.4 ng/g; concentration at 7 days ([3]; lung, read-out: Decanoate concentration, Lung): 735 ng/g; concentration at 7 days ([3]; male, adrenal, read-out: Decanoate concentration, Adrenal): 12.1 ng/g; concentration at 7 days ([3]; male, plasma, read-out: Decanoate concentration, Plasma): 3.1 ng/mL; concentration at 7 days ([3]; male, prostate, read-out: Decanoate concentration, Prostate): 0 ng/g; concentration at 7 days ([3]; male, testes, read-out: Decanoate concentration, Testes): 1.3 ng/g
